Read-outs that look alike come from different tables or passages of the source.
What was measured:
[1] = tested on: diffuse large B-cell lymphoma (B-DLCL)
Protocol: DNA was extracted according to standard protocols known to those of skill in the art (see, e.g., Sambrook et al., Molecular Cloning: a Laboratory Manual, 2nd Ed.; Cold Spring Harbor Laboratory Press, Plainview, N.Y., 1998, herein incorporated by reference). Methylation patterns in the CpG island of MGMT were determined by chemical modification of unmethylated, but not methylated, cytosines to uracil. Methylation-specific polymerase chain reaction (PCR) was performed with primers specific for either methylated or the modified unmethylated DNA, as previously described (Esteller, et al. Cancer Res 1999; 59:793-797; incorporated herein by reference in its entirety; and Herman et al. Proc Natl Acad Sci USA 1996;93:9821-9826; incorporated herein by reference in its entirety). DNA (1 μg) was denatured with sodium hydroxide and modified with sodium bisulfite. DNA samples were then purified with the Wizard DNA purification resin (Promega, Madison, Wis.), again treated with sodium hydroxide, precipitated with ethanol, and resuspended in water. Primer sequences for the unmethylated reaction were 5′[…]3′ (forward primer; SEQ ID NO:1) and 5′[…]3′ (reverse primer; SEQ ID NO:2), and for the methylated reaction they were 5′[…]3′ (forward primer; SEQ ID NO:3) and 5′[…]3′ (reverse primer; SEQ ID NO:4). The annealing temperature was 59° C. Placental DNA treated in vitro with Sss I methyltransferase (New England Biolabs, Beverly, Mass.) was used as a positive control for methylated alleles of MGMT, and DNA from normal lymphocytes was used as a negative control. Controls without DNA were used for each set of methylation-specific PCR assays. Ten microliters of each 50-μl methylation-specific PCR product was loaded directly onto nondenaturing 6 percent polyacrylamide gels, stained with ethidium bromide, and examined under ultraviolet illumination.
Continuous variables were compared with the use of Student's t-test. Contingency tables were analyzed by Fisher's exact test. Disease-free and overall survival curves were estimated by the Kaplan-Meier method and were compared with the use of the log-rank test. Multivariate survival analyses were performed with the Cox proportional-hazards model, and proportional-hazards assumptions were checked with the use of Schoenfeld residuals and graphic methods. Descriptive or stratified analyses always preceded parametric modeling in order to confirm that the assumptions underlying the models were met. The results are reported as two-sided P values with 95 percent confidence intervals. Analyses were performed with the use of JMP software (version 3.1, SAS Institute, Cary, N.C.) and Stata software (version 6.0, Stata, College Station, Tex.).
Clinical follow-up was obtained until Aug. 31, 1999 or until death. […] Diagnosis was based on histopathology, immunophenotypic analysis of cell surface markers, and immunogenotypic analysis of immunoglobulin gene rearrangement. The histopathologic definition of B-DLCL was according to the REAL classification (Harris N L, et al., Blood. 1994;84:1361-92). Subjects positive for human immunodeficiency virus were not included in the study. Staging included routine blood chemistry tests; blood cell counts and differential; EKG; chest x-ray; computed tomography of chest, abdomen and pelvis; and bilateral bone marrow biopsy in all subjects. Disease stage was assessed according to Ann Arbor criteria (Carbone P P, et al., Cancer Res. 1971;31:1860-1). The International Prognostic […] (IPI) was calculated as described (The International Non-Hodgkin's Lymphoma Prognostic Factors Project. A predictive model for aggressive non-Hodgkin's lymphoma. N Engl J Med. 1993;329:987-94), with subjects classified as Low, Low-Intermediate, High-Intermediate, and High risk.
Treatment varied, depending on stage of disease, date of diagnosis, institution and prognostic factors.

[2] = tested on: grade III or IV gliomas (anaplastic astrocytoma, glioblastoma multiforme); assay: Clinical response, survival and time to progression of gliomas treated with carmustine, by MGMT promoter methylation status; type: in vivo, human
Protocol: The annealing temperature was 59° C.
Contingency tables were analyzed by Fisher's exact test.
Specimens of brain tumors from 47 consecutive subjects referred to the University Hospital of Navarre, in Pamplona, Spain, between April 1993 and November 1998 were studied. All the subjects provided written informed consent. […] Subjects were 38 to 70 years old (median age at diagnosis, 55 years); 30 were men, and 17 were women. Tumor specimens were obtained by resection or biopsy performed before the initiation of treatment with radiation and chemotherapy and were immediately frozen and stored at −80° C. All subjects were treated with intraarterial cisplatin (50 mg per square meter of body-surface area), whole-brain radiotherapy, and a median of three courses of intravenous carmustine (1,3-bis(2-chloroethyl)-1-nitrosourea, or BCNU; 100 mg per square meter) given at four-week intervals. Fifteen of the subjects also underwent autologous bone marrow transplantation plus high-dose chemotherapy treatment with three doses of intravenous carmustine (300 mg per square meter) per day and one dose of intraarterial cisplatin (100 mg)
The response to treatment was evaluated after the subjects had completed therapy. A complete response was defined as the absence of any evidence of the tumor on computed tomographic (CT) and magnetic resonance imaging (MRI) scans, with no need for steroid treatment and an improvement in the subject's general condition. Subjects with persistent CT abnormalities but with more than a 50 percent reduction in both the diameter and the volume of the tumor, a reduced need for steroid treatment, and a stabilized neurologic condition were considered to have a partial response. The disease was considered to have progressed if both the diameter and volume of the tumor increased by 25 percent or more of the initial measurements, if a new lesion was evident on CT or MRI scans, or if the subject's neurologic condition worsened and required an increased dose of steroids.
Forty-seven newly diagnosed grade III or IV gliomas (classified as anaplastic astrocytoma in 18 subjects and as glioblastoma multiforme in 29) were analyzed. Methylation of the MGMT promoter was found in 19 of the 47 tumors (40 percent) a frequency similar to that found in a previous study (Estellar, 1999, supra) and consistent with that in other reports (Silber et al., Cancer Res 1993; 53:3416-3420; and Silber et al., Cancer Res 1998; 58:1068-1073). Methylation was not associated with the subject's age, the Karnofsky score for performance status, or the grade of the tumor (P>0.3 for each comparison).

MGMT [3] = target: T1, MGMT (Homo sapiens, UniProt P16455); conditions: cited from earlier work
T1 sequence (P16455 1-207): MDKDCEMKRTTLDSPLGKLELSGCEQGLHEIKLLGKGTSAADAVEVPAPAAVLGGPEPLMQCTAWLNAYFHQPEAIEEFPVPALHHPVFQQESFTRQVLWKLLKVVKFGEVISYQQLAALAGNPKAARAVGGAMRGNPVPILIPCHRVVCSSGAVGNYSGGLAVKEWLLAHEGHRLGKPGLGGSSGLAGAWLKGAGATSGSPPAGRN

MGMT [4] = target: T1, MGMT; conditions: substrate for MGMT; cited from earlier work
[5] = subjects with MGMT methylation (N=30)
[6] = subjects without methylation (N=54)

O=P1(N(CCCl)CCCl)NCCCO1 (stereo not shown) [cyclophosphamide]
CR (complete remission) [1, 5]: 77% | NR [1, 5]: 10% | PR (partial remission) [1, 5]: 13% | NR [1, 6]: 22% | PCR (complete remission) [1, 6]: 63% | PR (partial remission) [1, 6]: 15% | time to death, hazard ratio for non-methylation ([1]; univariate, 95% CI 1.2 to 7.5, p=0.01): 2.8 | disease progression, hazard ratio without vs with methylation ([1]; univariate, 95% CI 1.3 to 5.8, p=0.005): 2.6

O=NN(CCCl)C(=O)NCCCl [carmustine, 1,3-bis(2-chloroethyl)-1-nitrosourea]
risk of death, hazard ratio ([2]; lack of methylation vs methylation, univariate, 95% CI 3.0 to 42.7): 9.5 | Complete response, % (95% CI) ([2]; methylated (N=19)): 11 (1-33) % | No Change, % (95% CI) ([2]; methylated (N=19)): 16 (3-38) % | Partial response, % (95% CI) ([2]; methylated (N=19)): 52 (29-76) % | Progression, % (95% CI) ([2]; methylated (N=19)): 21 (6-44) % | median time to the progression of disease ([2]; methylated gliomas): 21 months | time to progression, hazard ratio associated with nonmethylation ([2]; nonmethylation vs methylation, 95% CI 4.4 to 30.8): 10.8 | partial or complete response to carmustine ([2]; subjects with methylated MGMT promoter tumors (N=19)): 63% | partial or complete response to carmustine ([2]; subjects with unmethylated MGMT promoter tumors (N=28)): 4% | Complete response, % (95% CI) ([2]; unmethylated (N=28)): 0 (0-12) % | No Change, % (95% CI) ([2]; unmethylated (N=28)): 14 (4-33) % | Partial response, % (95% CI) ([2]; unmethylated (N=28)): 4 (0-18) % | Progression, % (95% CI) ([2]; unmethylated (N=28)): 82 (63-94) % | median time to the progression of disease ([2]; unmethylated gliomas): 8 months

Nc1nc(OCc2ccccc2)c2nc[nH]c2n1 [O^6-benzylguanine]
effect on sensitivity to cyclophosphamide metabolites (MGMT [3]): increase sensitivity to cyclophosphamide metabolites | effect on response to alkyl nitrosoureas (MGMT [3]; in vitro and in vivo): enhance the response to alkyl nitrosoureas in vitro and in vivo | effect on MGMT enzyme (MGMT [4]): inactivates the enzyme

— patent US6773897B2, “Method of predicting the clinical response to chemotherapeutic treatment with alkylating agents” (The Johns Hopkins University School of Medicine, priority 2000, dated 2004)
